According to patent US11021468B2, “TGF-ß inhibitors” (Rigel Pharmaceuticals, Inc., priority 2015, dated 2021):

What was measured:
GDF8 = assay: AlphaScreen SureFire SMAD3 (p-Ser423/425) assay, GDF8-stimulated (GDF pSMAD (MPC11)); assay type: cell-based; conditions: p-SMAD-3 (Ser423/425)
Excerpt: (§1) Example 2: AlphaScreen® SureFire® SMAD3 (p-Ser423/425) Assay
(§2) The p-SMAD-3 (Ser423/425) SureFire® assay has been designed to measure the phosphorylation of endogenous cellular p-SMAD-3 (Ser423/425) in cell lysates and is a system for the screening of both modulators of receptor activation (e.g. agonists and antagonists) as well as agents acting intracellularly, such as small molecule inhibitors of upstream events. The assay will measure p-SMAD-3 (Ser423/425) activation by either cloned or endogenous receptors, and can be applied to primary cells.
(§3) P-SMAD-3 (Ser423/425) SureFire® Assay Protocols
(§4) 96-well Assay Protocol for 293FT and RMS13 adherent cells can be carried out manually or in high throughput with liquid handling robots.
(§5) The cells (80 μL of cells for 96 well plates) were plated in collagen coated tissue culture plates in RPMI or FreeStyle medium (Invitrogen) and incubated overnight. For manual analysis, 6 plates for GDF8, 6 plates for TGFβ, and optionally 6 plates for Alk5ca(ALK5 constitutively active) were used.
(§6) The compound dilution plates were prepared as follows: 12 μL of DMSO was transferred into first column of 96-well plate, and 16 μL of DMSO was transferred into columns 2-12 of the 96-well plate. 12 μL of compound solution was transferred into first column of the DMSO-containing 96-well plate. Three-fold dilution was performed up to column 10 of the DMSO-containing 96-well plate.
(§7) The plate containing cells were treated with compounds for about 10 minutes, and then ligand was added. GDF8 or TGFb was added to plates to stimulate. 293FL cells were stimulated for 90 minutes at 37° C.; and RMS13 cells were stimulated for 60 minutes at 37° C. The medium was then removed from the cells, and 1× Lysis Buffer (about 25 μL) was added and the plate was gently agitated on plate shaker for 5-10 minutes.
(§8) The lysate (5 μL) was then placed into 384-well shallow plates avoiding the generation of bubbles. To this, the Reaction Buffer+Activation Buffer+AlphaScreen® Acceptor beads mixture (5 μL) was added. The plate was sealed with adhesive cover and shielded from light (e.g., with metal foil), and agitated gently on plate shaker for 2 hours at room temperature.
(§9) Dilution buffer+AlphaScreen® Donor beads (2 μL) was then added, and the plate was intubated on the plate shaker for an additional 1½ hours. After completion, the plate was read on Synergy-4 or Enspire plate reader, using AlphaScreen® pSMAD3® settings.
(§10) Representative results for inhibition of GDF8 (data=GDF pSMAD (MPC11) (μM)) and TGF-β (data=TGF-β pSMAD (MPC-11) (μM)) signaling are shown in Table 1: […]

TGF-β = assay: AlphaScreen SureFire SMAD3 (p-Ser423/425) assay, TGF-β-stimulated (TGF-β pSMAD (MPC-11)); assay type: cell-based; conditions: p-SMAD-3 (Ser423/425)
Excerpt: as §1, §2, §3, §4, §5, §6, §7, §8, §9, §10

[1] = Mus musculus, MPC-11, inhibition of GDF8 signaling
[2] = Mus musculus, MPC-11, inhibition of TGF-β signaling

IC50 (GDF8; [1]) [nM] | IC50 (TGF-β; [2]) [nM] | IC50 (GDF8; inhibition of GDF8 signaling) [nM] | IC50 (TGF-β; inhibition of TGF-β signaling) [nM] | Structure (SMILES)
394 | 808 | – | – | Cc1cccc(-c2ncc(C)c(Nc3cc4cn[nH]c4cc3F)n2)c1 [Compound 58, 6-Fluoro-N-(2-(3-methylphenyl)-5-methylpyrimidin-4-yl)-1H-indazol-5-amine]
234 | 322 | – | – | Cc1cccc(-c2ncc(C)c(Nc3cc4cn[nH]c4cc3C)n2)c1 [Compound 52, N-(2-(3-Methylphenyl)-5-methylpyrimidin-4-yl)-6-methyl-1H-indazol-5-amine]
58.6 | 174 | – | – | Cc1cnc(-c2ccc(F)c(F)c2)nc1Nc1ccc2[nH]ncc2c1 [Compound 40, N-(2-(3,4-Difluorophenyl)-5-methylpyrimidin-4-yl)-1H-indazol-5-amine]
125 | 339 | – | – | Cc1cnc(-c2ccccc2F)nc1Nc1ccc2[nH]ncc2c1 [Compound 38, N-(2-(2-Fluorophenyl)-5-methylpyrimidin-4-yl)-1H-indazol-5-amine]
34.4 | 44.4 | – | – | COc1cc2nccc(Nc3ccnc(-c4ccc(F)cc4C)n3)c2cc1OC [Compound 47, N-(2-(4-Fluoro-2-methylphenyl)pyrimidin-4-yl)-6,7-dimethoxyquinolin-4-amine]
427 | 2340 | – | – | Cc1ccccc1-c1ncc(F)c(Nc2ccc3[nH]ncc3c2)n1 [Compound 34, N-(5-Fluoro-2-(methylphenyl)pyrimidin-4-yl)-1H-indazol-5-amine]
11 | 65.9 | – | – | COc1ccc(-c2nccc(Nc3ccc4[nH]ncc4c3)n2)c(C)c1 [Compound 46, N-(2-(4-Methoxy-2-methylphenyl)pyrimidin-4-yl)-1H-indazol-5-amine]
335 | 381 | – | – | COc1cc2[nH]ncc2cc1Nc1nc(-c2ccccc2F)ncc1C [Compound 62, N-(2-(2-Fluorophenyl)-5-methylpyrimidin-4-yl)-6-methoxy-1H-indazol-5-amine]
– | – | 777 | 829 | Cc1cc(-c2ncc(C)c(Nc3cc4cn[nH]c4cc3C)n2)ccc1F [Compound 51, N-(2-(4-Fluoro-3-methylphenyl)-5-methylpyrimidin-4-yl)-6-methyl-1H-indazol-5-amine]
540 | 543 | – | – | Cc1cc2[nH]ncc2cc1Nc1nc(-c2ccc(F)cc2)ncc1C [Compound 53, N-(2-(4-Fluorophenyl)-5-methylpyrimidin-4-yl)-6-methyl-1H-indazol-5-amine]
454 | 1040 | – | – | Cc1cnc(-c2ccc(F)c(F)c2)nc1Nc1cc2cn[nH]c2cc1F [Compound 60, 6-Fluoro-N-(2-(3,4-difluorophenyl)-5-methylpyrimidin-4-yl)-1H-indazol-5-amine]
192 | 595 | – | – | Cc1ccc(F)c(-c2nccc(Nc3ccc4[nH]ncc4c3)n2)c1 [Compound 48, N-(2-(2-Fluoro-5-methylphenyl)pyrimidin-4-yl)-1H-indazol-5-amine]
209 | 1840 | – | – | Nc1ccccc1-c1nccc(Nc2ccc3[nH]ncc3c2)n1 [Compound 44, N-(2-(2-Aminophenyl)pyrimidin-4-yl)-1H-indazol-5-amine]
545 | 349 | – | – | Cc1cc(-c2ncc(C)c(Nc3cnc4[nH]ncc4c3)n2)ccc1F [Compound 49, N-(2-(4-Fluoro-3-methylphenyl)-5-methylpyrimidin-4-yl)-1H-pyrazolo[3,4-b]pyridin-5-amine]
41 | 185 | – | – | Cc1cc(-c2nccc(Nc3ccc4[nH]ncc4c3)n2)ccc1F [Compound 43, N-(2-(4-Fluoro-3-methylphenyl)pyrimidin-4-yl)-1H-indazol-5-amine]
459 | 3260 | – | – | Fc1cnc(-c2ccccc2)nc1Nc1ccc2[nH]ncc2c1 [Compound 37, N-(5-Fluoro-2-phenylpyrimidin-4-yl)-1H-indazol-5-amine]
1050 | 3490 | – | – | Fc1ccc(-c2nc(Nc3cnc4[nH]ncc4c3)c3cc[nH]c3n2)cc1 [Compound 50, N-(2-(4-Fluorophenyl)-7H-pyrrolo[2,3-d]pyrimidin-4-yl)-1H-pyrazolo[3,4-b]pyridin-5-amine]
492 | 662 | – | – | Cc1cc2[nH]ncc2cc1Nc1nc(-c2ccc(F)c(F)c2)ncc1C [Compound 54, N-(2-(3,4-Difluorophenyl)-5-methylpyrimidin-4-yl)-6-methyl-1H-indazol-5-amine]
241 | 535 | – | – | Cc1cc(-c2ncc(C)c(Nc3cc4cn[nH]c4cc3F)n2)ccc1F [Compound 61, 6-Fluoro-N-(2-(4-fluoro-3-methylphenyl)-5-methylpyrimidin-4-yl)-1H-indazol-5-amine]

More lines, now with the values behind:

Structure (SMILES) | IC50 (GDF8; [1]) [nM] | IC50 (TGF-β; [2]) [nM] | IC50 (GDF8; inhibition of GDF8 signaling) [nM] | IC50 (TGF-β; inhibition of TGF-β signaling) [nM]
Fc1ccc(-c2nc(Nc3ccc4[nH]ncc4c3)c3cc[nH]c3n2)cc1 [Compound 5, 2-(4-Fluorophenyl)-N-(1H-indazol-5-yl)-7H-pyrrolo[2,3-d]pyrimidin-4-amine] | 66.1 | 751 | – | –
Cc1cccc(-c2nc(Nc3cnc4[nH]ncc4c3)c3ccccc3n2)n1 [Compound 2, 2-(6-Methylpyridin-2-yl)-N-(1H-pyrazolo[3,4-b]pyridin-5-yl)quinazolin-4-amine] | 144 | 318 | – | –
Nc1cccc(-c2nccc(Nc3ccc4[nH]ncc4c3)n2)c1 [Compound 31, N-(2-(3-Aminophenyl)pyrimidin-4-yl)-1H-indazol-5-amine] | 463 | 2710 | – | –
Cc1cc(-c2nc(Nc3ccc4[nH]ncc4c3)c3cc[nH]c3n2)ccc1F [Compound 8, 2-(4-Fluoro-3-methylphenyl)-N-(1H-indazol-5-yl)-7H-pyrrolo[2,3-d]pyrimidin-4-amine] | 84.2 | 747 | – | –
COc1ccc(-c2nccc(Nc3ccc4[nH]ncc4c3)n2)cc1F [Compound 28, N-(2-(3-Fluoro-4-methoxyphenyl)pyrimidin-4-yl)-1H-indazol-5-amine] | 363 | 2140 | – | –
Cc1cccc(-c2nc(Nc3ccc4[nH]ncc4c3)c3[nH]ccc3n2)c1 [Compound 11, N-(1H-Indazol-5-yl)-2-(3-methylphenyl)-5H-pyrrolo[3,2-d]pyrimidin-4-amine] | 917 | 5330 | – | –
Fc1ccc(-c2nccc(Nc3cnc4[nH]ncc4c3)n2)cc1F [Compound 3, N-(2-(3,4-Difluorophenyl)pyrimidin-4-yl)-1H-pyrazolo[3,4-b]pyridin-5-amine] | 382 | 1530 | – | –
Fc1ccc(-c2nc(Nc3ccc4[nH]ncc4c3)c3cc[nH]c3n2)c(F)c1 [Compound 7, 2-(2,4-Difluorophenyl)-N-(1H-indazol-5-yl)-7H-pyrrolo[2,3-d]pyrimidin-4-amine] | 119 | 874 | – | –
Cc1cnc(-c2cccc(F)c2)nc1Nc1cnc2[nH]ncc2c1 [Compound 13, N-(2-(3-Fluorophenyl)-5-methylpyrimidin-4-yl)-1H-pyrazolo[3,4-b]pyridin-5-amine] | 883 | 2720 | – | –
Cc1ccc(C)c(-c2nccc(Nc3ccc4[nH]ncc4c3)n2)c1 [Compound 30, N-(2-(2,5-Dimethylphenyl)pyrimidin-4-yl)-1H-indazol-5-amine] | 193 | 842 | – | –
Fc1ccccc1-c1nccc(Nc2ccc3[nH]ncc3c2)n1 [Compound 17, N-(2-(2-Fluorophenyl)pyrimidin-4-yl)-1H-indazol-5-amine] | 220 | 2170 | – | –
Cc1cc(F)ccc1-c1ncc(F)c(Nc2cnc3[nH]ncc3c2)n1 [Compound 12, N-(5-Fluoro-2-(4-fluoro-2-methylphenyl)pyrimidin-4-yl)-1H-pyrazolo[3,4-b]pyridin-5-amine] | 481 | 1590 | – | –
Fc1cccc(-c2nccc(Nc3ccc4[nH]ncc4c3)n2)c1 [Compound 18, N-(2-(3-Fluorophenyl)pyrimidin-4-yl)-1H-indazol-5-amine] | 154 | 1360 | – | –
